What all share (format): in vivo
For data set [1], the system named is Tobacco Cutworm (Spodoptera litura) Larvae. Nature of the data set: Test against tobacco cutworm (Spodoptera litura) larvae, leaf immersion. To be noted: 100 ppm; sweet potato leaves immersed; third-instar larvae; after 7 days. The procedure:
(§1) Unless not mentioned otherwise, the test solutions were prepared as follows:
(§2) Containing as solvent: Dimethylformamide, 3 parts by weight; and as emulsifier: Polyoxyethylene alkyl phenyl ether, 1 part by weight. To prepare the test solution, 1 part by weight of an active compound is mixed with the above-mentioned amount of solvent containing the above-mentioned amount of emulsifier, and the mixture is diluted with water to the desired concentration.
The leaves of sweet potato were immersed in the test solution at the appropriate concentration, and the leaves were dried in air. The leaves were then placed in a petri dish having a diameter of 9 cm, and ten third-instar larvae of tobacco cutworm were released therein. The petri dish was placed in a temperature-controlled chamber at 25° C. After 2 days and 4 days sweet potato leaves were additionally added. After 7 days, the number of dead larvae was counted to calculate the insecticidal activity. An insecticidal activity of 100% means that all larvae were killed, whereas an insecticidal activity of 0% means that no larva was killed. In the current test, the results of two petri dishes for each partition were averaged.

The test system of data set [2] is Two-Spotted Spider Mite (Tetranychus urticae). Nature of the data set: Test against two-spotted spider mite (Tetranychus urticae), spray. The note with it: 100 ppm; sprayed on kidney bean; adult mites; after 7 days. The method, then:
as §1, §2
50 to 100 adult two-spotted spider mites were inoculated onto the leaves of kidney beans at the two-true leaf stage, which plant had been cultivated in a pot having a diameter of 6 cm. After one day, test solution at the appropriate concentration was sprayed thereon in a sufficient amount using a spray gun. After the spraying, the plant pot was placed inside a greenhouse, and after 7 days, the acaricidal activity was calculated. An acaricidal activity of 100% means that all mites were killed, whereas an acaricidal activity of 0% means that no mite was killed.

The subject of data set [3] is Cucurbit Leaf Beetle (Aulacophora femoralis). Briefly: Test against cucurbit leaf beetle (Aulacophora femoralis), leaf immersion. To be noted: 100 ppm; cucumber leaves immersed; second-instar larvae; after 7 days. The method, then: as §1, §2
Cucumber leaves were immersed in the test solution at the appropriate concentration, and the leaves were dried in air. The leaves were then placed in a plastic cup containing sterilized black soil, and five second-instar larvae of cucurbit leaf beetle were released therein. The plastic cup was placed in a temperature-controlled chamber at 25° C. After 7 days, the number of dead larvae was counted, and thus the insecticidal activity was calculated. An insecticidal activity of 100% means that all beetles were killed, whereas an insecticidal activity of 0% means that no beetle was killed.

Data set [4] concerns Tobacco Cutworm (Spodoptera litura) Larvae. Nature of the data set: Test against tobacco cutworm larvae, root systemicity. The note with it: 100 ppm; broccoli seedling roots dipped 3 days; second-instar larvae; after 4 days. The procedure: as §1, §2
The roots of seedling of broccoli at 1.2 leaf stage were dipped into the test solution at the appropriate concentration. After 3 days, the leaves were cut and placed in a petri dish having a diameter of 9 cm. And then five second-instar larvae of tobacco cutworm were released therein. The petri dish was placed in a temperature-controlled room at 25° C. After 4 days, the number of dead larvae was counted, to calculate the insecticidal activity. An insecticidal activity of 100% means that all larvae were killed, whereas an insecticidal activity of 0% means that no larva was killed.

The next data set deals with Musca domestica. Nature of the data set: Musca domestica test. The note with it: 100 ppm; sponge with sugar and compound solution; adults; after 2 days. The procedure: (§3) Solvent: dimethyl sulfoxide
To produce a suitable preparation of active compound, 10 mg of active compound are dissolved in 0.5 ml solvent, and the concentrate is diluted with water to the desired concentration. Prior to the assay, a piece of kitchen sponge is soaked with a mixture of sugar and compound solution and placed into a container. 10 adults (Musca domestica) are placed into the container and closed with a perforated lid. After 2 days mortality in % is determined. 100% means that all the flies have been killed; 0% means that none of the flies have been killed.

Data set [5] deals with Nymphs of the tick Amblyomma hebraeum. Briefly: Amblyomma hebraeum test (AMBYHE). The note with it: 100 ppm; nymphs immersed one minute; after 42 days. The method, then: as §3
To produce a suitable preparation of active compound, 10 mg of active compound are dissolved in 0.5 ml solvent, and the concentrate is diluted with water to the desired concentration. Nymphs of the tick Amblyomma hebraeum are placed in perforated plastic beakers and immersed in aqueous compound solution for one minute. Ticks are transferred to a filter paper in a petri dish and incubated in a climate chamber for 42 days.
After 42 days mortality in % is determined. 100% means that all the ticks have been killed; 0% means that none of the ticks have been killed.

For data set [6], the system named is Tobacco Cutworm (Spodoptera litura) Larvae. Nature of the data set: Test against tobacco cutworm larvae, systemic test by soil drench. To be noted: 250 ppm, 20 ml soil drench on potted broccoli, leaves cut after 7 days, third-instar larvae. The procedure:
as §1, §2
20 ml of the test solution at the appropriate concentration was treated on the soil surface of potted broccoli seedling at 2 to 3 leaf stage. After 7 days, the leaves were cut and placed in a petri dish having a diameter of 9 cm. And then ten third-instar larvae of tobacco cutworm were released therein. The petri dish was placed in a temperature-controlled room at 25° C. After 7 days, the number of dead larvae was counted to calculate the insecticidal activity. An insecticidal activity of 100% means that all larvae were killed, whereas an insecticidal activity of 0% means that no larva was killed. […] The comparative compound A is No. 1-72 in WO2009/097992.

Data set [7] concerns adult engorged female Boophilus microplus ticks. Nature of the data set: Boophilus microplus (dip). To be noted: 100 ppm; ticks immersed one minute; after 7 days. The method, then: Solvent: Dimethylsulfoxid
To produce a suitable preparation of active compound, 10 mg of active compound are dissolved in 0.5 ml solvent, and the concentrate is diluted with water to the desired concentration. Eight to ten adult engorged female Boophilus microplus ticks are placed in perforated plastic beakers and immersed in aqueous compound solution for one minute. Ticks are transferred to a filter paper in a plastic tray. Egg deposition of fertile eggs is monitored after. After 7 days mortality in % is determined. 100% means that all the ticks have been killed; 0% means that none of the ticks have been killed.

The next data set relates to Ctenocephalides felis. Nature of the data set: Ctenocephalides felis test (CTECFE). To be noted: 100 ppm in cattle blood; adult unfed fleas; after 2 days. The method, then:
as §3
To produce a suitable preparation of active compound, 10 mg of active compound are dissolved in 0.5 ml solvent, and the concentrate is diluted with cattle blood to the desired concentration. Approximately 20 adult unfed (Ctenocepahlides felis) are placed in flea chambers. The blood chamber, sealed with parafilm on the bottom, are filled with cattle blood supplied with compound solution and placed on top of the flea chamber, so that the fleas are able to suck the blood. The blood chamber is heated to 37° C. whereas the flea chamber is kept at room temperature. After 2 days mortality in % is determined. 100% means that all the fleas have been killed; 0% means that none of the fleas have been killed.

Experimental findings from patent US8410141B2, “Insecticidal arylpyrrolines” (Bayer Cropscience AG, priority 2009, dated 2013) are described below.

A word on the mortality: it is the percentage killed. Low readings indicate a weak lethal effect, high ones a strong lethal effect.

For `FC(F)(F)C1(c2cc(Cl)nc(Cl)c2)CN=C(c2ccc(-n3cncn3)cc2)C1` (stereo not drawn) [1-2], the insecticidal activity in data set [1], in data set [3] and in data set [4] was 100% throughout. In data set [2], this compound yielded an acaricidal activity rate of 100%. For the same compound, in the data set with Musca domestica, the mortality is recorded as 90%.
Take `N#Cc1cc(C2=NCC(c3cc(Cl)cc(C(F)(F)F)c3)(C(F)(F)F)C2)ccc1-n1cncn1` (stereo not drawn) [1-10]: the insecticidal activity in [1], in data set [3] and in [4] was 100% throughout. Besides, the acaricidal activity rate in data set [2] amounted to 100%. In [5], this compound registered a mortality of 100%.
As for `N#Cc1cc(C2=NCC(c3cc(Cl)c(F)c(Cl)c3)(C(F)(F)F)C2)ccc1-n1cncn1` (stereo not drawn) [1-13], the insecticidal activity in data set [1], in data set [3] and in data set [4] was 100% throughout. Besides, in [2], the acaricidal activity rate was determined as 100%. In addition, the mortality in [5] is given as 100%.
As to `N#Cc1cc(C2=NCC(c3cccc(C(F)(F)F)c3F)(C(F)(F)F)C2)ccc1-n1cncn1` (stereo not drawn) [1-19], the insecticidal activity in [1] and in [3] was 100% each time. The compound also had an acaricidal activity rate in data set [2] of 100%. This compound returned a mortality in the data set on Musca domestica of 90%.
Consider `N#Cc1cc(C2=NCC(c3cc(Cl)c(F)c(Cl)c3F)(C(F)(F)F)C2)ccc1-n1cncn1` (stereo not drawn) [1-20], for which the insecticidal activity in [1], in [3] and in data set [4] was 100% in each case. The same compound had an acaricidal activity rate in [2] of 100%. Further, in data set [5], the mortality was determined as 100%.
As for `N#Cc1cc(C2=NCC(c3ccnc(C(F)(F)F)c3)(C(F)(F)F)C2)ccc1-n1cncn1` (stereo not drawn) [1-21], the insecticidal activity in [1], in data set [3], in [4] and in [6] was 100% throughout. This compound registered an acaricidal activity rate in data set [2] of 100%. This compound also gave a mortality with Musca domestica of 80%.
For the compound `Fc1cc(C2=NCC(c3cc(Cl)c(Cl)c(Cl)c3)(C(F)(F)F)C2)ccc1-n1cncn1` (stereo not drawn) [1-29], the insecticidal activity in [1] and in data set [3] was 100% throughout. This compound displayed a mortality in [7] of 95%.
As to `FC(F)(F)C1(c2cc(Cl)c(Cl)c(Cl)c2)CN=C(c2ccc(-n3cncn3)c(Cl)c2)C1` (stereo not drawn) [1-30], the insecticidal activity in [1] and in [3] was 100% each time. The acaricidal activity rate in data set [2] is on record as 100%. In the data set on Ctenocephalides felis, this compound came in with a mortality of 90%.
Regarding `N#Cc1cc(C2=NCC(c3cc(Cl)c(Cl)c(Cl)c3)(C(F)(F)F)C2)cnc1-n1cncn1` (stereo not drawn) [1-52], the insecticidal activity in data set [1] and in data set [3] was 100% each time. Further, the acaricidal activity rate in data set [2] is 100%. The compound further returned a mortality in data set [7] of 90%.
`N#Cc1cc(C2=NCC(c3cc(Cl)nc(Cl)c3)(C(F)(F)F)C2)cnc1-n1cncn1` (stereo not drawn) [1-66]: the insecticidal activity in [1], in data set [3] and in [4] was 100% each time. The mortality in the data set on Musca domestica was 80%.
As for `N#Cc1cc(C2=NCC(c3cccc(C(F)(F)F)n3)(C(F)(F)F)C2)ccc1-n1cncn1` (stereo not drawn) [1-126], the insecticidal activity in [1], in data set [3] and in data set [4] was 100% throughout. Besides, the mortality in the data set with Ctenocephalides felis and with Musca domestica was 90% in each case.
The compound `N#Cc1cc(C2=NCC(c3cncc(Cl)c3)(C(F)(F)F)C2)ccc1-n1cncn1` (stereo not drawn) [1-480] gave an acaricidal activity rate in data set [2] of 100%. The compound further registered an insecticidal activity in [3] of 100%. The compound further gave a mortality in the data set on Ctenocephalides felis of 90%.
In data set [2], `N#Cc1cc(C2=NCC(c3cccc(OC(F)F)c3)(C(F)(F)F)C2)ccc1-n1cncn1` (stereo not drawn) [1-483] had an acaricidal activity rate of 100%. The same compound gave an insecticidal activity in [3] of 100%. Further, the mortality with Ctenocephalides felis came out at 90%.
With `N#Cc1cc(C2=NCC(c3cc(OC(F)F)cc(OC(F)F)c3)(C(F)(F)F)C2)ccc1-n1cncn1` (stereo not drawn) [1-485], the insecticidal activity in data set [1], in [3] and in data set [4] was 100% in each case. Besides, the acaricidal activity rate in data set [2] is 100%. Further, in [7], the mortality is on record as 90%.
In turn, `N#Cc1cc(C2=NCC(c3cc(Cl)c([N+](=O)[O-])c(Cl)c3)(C(F)(F)F)C2)ccc1-n1cncn1` (stereo not drawn) [1-489] came in with an insecticidal activity in [1] of 100%. The mortality (in data set [7]; with Musca domestica) was 80% each time.
In the case of `CCC(=O)NCc1ccc(C2=NCC(c3cc(C(F)(F)F)cc(C(F)(F)F)c3)(C(F)(F)F)C2)cc1` (stereo not drawn) [2-647], the insecticidal activity in data set [1], in [3] and in data set [4] was 100% each time. This compound also showed an acaricidal activity rate in data set [2] of 100%.
With `O=C(CC(F)(F)F)NCc1ccc(C2=NCC(c3cc(C(F)(F)F)cc(C(F)(F)F)c3)(C(F)(F)F)C2)cc1` (stereo not drawn) [2-648], the insecticidal activity in data set [1], in [3] and in [4] was 100% in each case. This compound displayed an acaricidal activity rate in data set [2] of 100%.
